In brackets after ≈: the same amount, converted by molar mass.
Experiments:
A549 (lung carcinoma) = assay: CIMA assay (tetrazolium reduction, cell viability, 72 h); type: cell-based, human; settings: Homo sapiens
Method: (§1) Prepared extracts were assessed following chronic exposure conditions in which cells were seeded at 2×10^3 cells/well (96 wells-plate) and incubated with test compounds for 72 h. Each compound was evaluated over a range of concentrations (0, 10, 25, 50 or 100 μg/ml). Cell proliferation was initially assessed using a standard colorimetric indicator of metabolic activity (CIMA) assay. In this assay, tetrazole reduction was evaluated as a measure of metabolic function that evaluates mitochondrial activity to determine the extent of cell proliferation within a culture. This assay is based on the reduction of yellow tetrazolium salt to purple formazan by mitochondrial reductases enzyme in viable cells, resulting in a color change that confers a change in absorbance. Seven human cell lines were selected for primary evaluation: U373 (glioblastoma-astrocytoma), A549 (lung carcinoma), THP-1 (acute monocytic leukemia), MCF7 (mammary gland adenocarcinoma), SKOV3 (ovarian adenocarcinoma), PC3 (prostate adenocarcinoma) and CCD1079SK (fibroblast, noncancerous but proliferating) (see FIG. 2 and Table 2). Results are expressed in Table 2 as % viability (means±standard deviation of three replicates), with LD50/IC50 values in Tables 3 and 6. […] The maximum DMSO concentration was 1% at 100 μg/ml with 5% SDS used as a known toxic inducer.
(§2) Experimental: Stock solutions of the test compounds were prepared in dimethylsulfoxide (DMSO) at 10 mg/ml and stored at −20° C. until used. This preparation ensures that the DMSO content delivered to cells in culture never exceeds 1%. Appropriate cells number, based on previous assays, were seeded in 96 well plate and incubated with test compounds (up to 8 log concentrations, 0 to 50 or 100 μg/ml) for 72 h. Cell proliferation was initially assessed using a standard colorimetric indicator of metabolic activity (CIMA) assay. In this assay, reduction of yellow tetrazolium salt (MTT) to purple formazan by mitochondrial reductases enzymes in viable cells were measured as change in absorbance (λ=500-600).
(§3) Seven human cell lines were evaluated: U373 (glioblastoma-astrocytoma), A549 (lung carcinoma), PC3 (prostate adenocarcinoma), THP1 (acute monocytic leukemia), MDA-MB-231 (mammary gland adenocarcinoma), SKOV3 (ovarian adenocarcinoma) and CCD1079Sk (normal skin fibroblast) cells.

[1] = system: CCD1079SK (fibroblast, noncancerous but proliferating); assay: as above; type: cell-based, human; settings: Homo sapiens, Fibroblast; 1079SK; 72 h
Method: as §1, §2, §3

[2] = as above; type: cell-based, human; settings: human
Method: as §1, §2, §3

[3] = system: THP-1 (acute monocytic leukemia); assay: as above; type: cell-based, human; settings: Homo sapiens
Method: as §1, §2, §3

[4] = system: PC3 (prostate adenocarcinoma); assay: as above; type: cell-based, human; settings: Homo sapiens
Method: as §1, §2, §3

[5] = system: U373 (glioblastoma-astrocytoma); assay: as above; type: cell-based, human; settings: Homo sapiens, U373 MG
Method: as §1, §2, §3

[6] = system: SKOV3 (ovarian adenocarcinoma); assay: as above; type: cell-based, human; settings: Homo sapiens
Method: as §1, §2, §3

[7] = system: MDA-MB-231 human breast cancer cells; assay: Murine flank tumor model, pure compound (II): tumor volume and weight; type: in vivo, nude mice (strain J:NU); settings: for Tumour weight (mg) ± SEM, extracted at necropsy: intraperitoneal every second day, 4 weeks
Method: Animal studies were conducted under ACC protocol #17-020 and Biosafety protocol #6007077 approved by the Atlantic Veterinary College (AVC, UPEI). Briefly, homozygous outbred nude mice (strain J:NU, 4-weeks old, female) suitable as immunodeficient tumor transplant hosts were procured from a commercial supplier (Jackson Labs, Maine, USA) and acclimatized in a barrier facility (AVC, UPEI) for one week.
To establish the tumors, MDA-MB-231 human breast cancer cells were cultured in vitro and harvested when they were between 60 to 80% confluent. Under anesthetized conditions, each the mouse was injected subcutaneously into both right and left flanks with […] (50:50 in matrigel:DMEM). Tumors development was monitored over a 2-week period. At 2 weeks, tumor established mice (tumor volume ˜20 mm^3) were selected and randomly grouped based on the tumor volume and body weight into ten mice per group as follows: • Group 1: Vehicle control (VC, DMSO 2%, Kholliphor EL 2%) • Group 2: Compound (II), 10 mg/kg body weight • Group 3: Compound (II), 5 mg/kg body weight
Seaweed extract was dissolved in molecular grade DMSO, liquid emulsion was prepared in Kholliphor EL (Sigma, USA) and the final injectable solution was prepared using sterile normal saline.
Mice with established tumors were treated every second day by intraperitoneal injections of test extracts over a 4-week time course. From each group a minimum of 16 tumors were selected for analysis. Tumors were measured weekly using external calipers and volumes established using the modified ellipsoidal formula: tumor volume=0.5 (length×width^2).
In addition, body weights and general animal health were assessed twice weekly during the treatment period. At study termination, mice were sacrificed, and tumors excised from the flank. To evaluate tumor metastasis, an explorative necropsy was conducted in each mouse and the presence and frequency of additional tumors at sites distal to the flank were assessed. Tumor tissue from the flank region was collected and preserved in 10% neutral buffered formalin for histology. Variance within each of the treatment groups to vehicle control was assessed over the four-week time course by one-way ANOVA.

[8] = A549, read-out: average cell viability
[9] = THP-1, read-out: average cell viability
[10] = read-out: average cell viability
[11] = SK-OV-3, read-out: average cell viability

`CCCCC[C@H](O)[C@H](O)/C=C/[C@@H]1CCCCCCCC(=O)O1` [compound (II), 12R, 13S-Dihydroxy-10-Octadecen-9S-olide] gave a viability at 1 µg/mL (A549 (lung carcinoma); [8]) of 95%, a viability at 10 µg/mL (A549 (lung carcinoma); [8]) of 93% and a viability at 50 µg/mL (A549 (lung carcinoma); [8]) of 92%. It also gave a viability at 100 µg/mL (A549 (lung carcinoma); [8]) of 61%, an IC50 (A549 (lung carcinoma); A549, 72 h) of 22 µg/mL (≈ 70.5 µM) and an IC50 [1] of 34.9 µg/mL (≈ 112 µM). For the same compound, the viability at 72 h, 1 ug/mL [2] was 91%, the viability at 72 h, 10 ug/mL [2] was 84% and the viability at 72 h, 50 ug/mL [2] was 90%. It also gave a viability at 72 h, 100 ug/mL [2] of 17%, a viability at 1 µg/mL [3, 9] of 96% and a viability at 10 µg/mL [3, 9] of 84%. It also gave a viability at 50 µg/mL [3, 9] of 68%, a viability at 100 µg/mL [3, 9] of 44% and an IC50 ([3]; THP-1, 72 h) of 25.9 µg/mL (≈ 82.8 µM). It also gave a viability at 1 µg/mL [4, 10] of 100%, a viability at 10 µg/mL [4, 10] of 93% and a viability at 50 µg/mL [4, 10] of 97%. For the same compound, the viability at 100 µg/mL [4, 10] was 19%, the IC50 ([4]; PC3, 72 h) was 37.7 µg/mL (≈ 121 µM) and the viability at 1 µg/mL [5, 10] was 90%. The viability at 10 µg/mL [5, 10] was 85%, the viability at 50 µg/mL [5, 10] was 68% and the viability at 100 µg/mL [5, 10] was 3%. It also gave an IC50 ([5]; U373, 72 h) of 39.1 µg/mL (≈ 125 µM), a viability at 1 µg/mL [6, 11] of 97% and a viability at 10 µg/mL [6, 11] of 97%. It also gave a viability at 50 µg/mL [6, 11] of 94%, a viability at 100 µg/mL [6, 11] of 85% and an IC50 ([6]; SK-OV-3, SKOV3, 72 h) of 67.7 µg/mL (≈ 217 µM). The “Tumour volumes ± SEM” value ([7]; 5 mg/kg b. wt. i.p. every second day, Week 0) was 26.94 ± 1.98 mm^3, the “Tumour volumes ± SEM” value ([7]; 5 mg/kg b. wt. i.p. every second day, Week 1) was 20.83 ± 2.20 mm^3 and the “Tumour volumes ± SEM” value ([7]; 5 mg/kg b. wt. i.p. every second day, Week 2) was 17.38 ± 2.04*¶ mm^3. For the same compound, the “Tumour volumes ± SEM” value ([7]; 5 mg/kg b. wt. i.p. every second day, Week 3) was 17.23 ± 3.18*¶ mm^3, the “Tumour volumes ± SEM” value ([7]; 5 mg/kg b. wt. i.p. every second day, Week 4) was 28.01 ± 3.61*¶ mm^3 and the “Tumour weight (mg) ± SEM, extracted at necropsy” value ([7]; 5 mg/kg b.wt.) was 34.64 ± 15.78 mg. The “Tumour volumes ± SEM” value ([7]; 10 mg/kg b. wt. i.p. every second day, Week 0) was 27.09 ± 1.60 mm^3, the “Tumour volumes ± SEM” value ([7]; 10 mg/kg b. wt. i.p. every second day, Week 1) was 24.06 ± 1.98 mm^3 and the “Tumour volumes ± SEM” value ([7]; 10 mg/kg b. wt. i.p. every second day, Week 2) was 17.40 ± 2.88*¶ mm^3. The “Tumour volumes ± SEM” value ([7]; 10 mg/kg b. wt. i.p. every second day, Week 3) was 18.95 ± 5.34*¶ mm^3, the “Tumour volumes ± SEM” value ([7]; 10 mg/kg b. wt. i.p. every second day, Week 4) was 28.37 ± 9.37*¶ mm^3 and the “Tumour weight (mg) ± SEM, extracted at necropsy” value ([7]; 10 mg/kg b.wt.) was 27.29 ± 8.07 mg. The “tumor volume at the end of 4-weeks (average)” value ([7]; 5 and 10 mg/kg, controls rose from 26 to 73 mm^3) was roughly 27 mm^3 and the “change in tumor size during the 4-week study” value ([7]; both tested concentrations (5 and 10 mg/kg)) was “no significant change in tumor size”.

— patent publication US20210323940A1 (OCEANS LTD., priority 2018, published 2021)
